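Cells were grown in 96-well plates and exposed to each compound for 48 hours at five concentrations; endpoints were interpolated linearly between bracketing concentrations, or set to the highest concentration if not reached. At the GI50, growth is halved. TGI is the concentration that stops growth completely.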
How the values were obtained:
Test in all cases: inhibition of tumour cell growth, NCI panel, 48 h
HOP-62 NSCLC = system: HOP-62 NSCLC
SF-295 CNS = system: SF-295 CNS
UACC-62 melanoma = system: UACC-62 melanoma
HOP-92 NSCLC = system: HOP-92 NSCLC
SNB-75 CNS = system: SNB-75 CNS
MDA-N = system: MDA-N
SNB-19 CNS = system: SNB-19 CNS
SR leukemia = system: SR leukemia
RXF 393 renal = system: RXF 393 renal
NCI-H460 lung = system: NCI-H460 lung

SMILES | TGI (HOP-62 NSCLC) | TGI (SF-295 CNS) | TGI (UACC-62 melanoma) | TGI (HOP-92 NSCLC) | TGI (SNB-75 CNS) | TGI (MDA-N) | TGI (SNB-19 CNS) | TGI (SR leukemia) | TGI (RXF 393 renal) | TGI (NCI-H460 lung) | GI50 (RXF 393 renal) | GI50 (HOP-62 NSCLC) | GI50 (SF-295 CNS) | GI50 (UACC-62 melanoma) | GI50 (HOP-92 NSCLC) | GI50 (SNB-75 CNS) | GI50 (NCI-H460 lung) | GI50 (SNB-19 CNS) | GI50 (SR leukemia)
COC(=O)C1=Nc2c(C)nn(-c3ccccc3)c2N=C(c2ccccc2)C1 | > 10 µM | > 10 µM | > 10 µM | > 10 µM | > 10 µM | > 10 µM | > 10 µM | > 10 µM |  |  |  |  |  |  |  |  |  |  | 
CCOC(=O)c1nnsc1NN | > 100 µM | > 100 µM | > 100 µM | > 100 µM | > 100 µM | > 100 µM | > 100 µM |  | > 100 µM | > 100 µM |  |  |  |  |  |  |  |  | 
Cc1c2c(OCC3CCCCO3)nn(C)c(=O)c2c(C)n1-c1ccccc1 (stereo not given) | 38 µM | 31.4 µM | 31 µM | 33.1 µM | 32 µM | 35.8 µM | 46.8 µM |  | 34.3 µM | 30.9 µM |  |  |  |  |  |  |  |  | 
CCCCCCCCCc1nn2c(Cc3ccccc3)nnc2s1 | 39.6 µM | 45.6 µM | 37.7 µM |  | 65.4 µM | 38.7 µM | 36.1 µM |  | 38.3 µM | 39.2 µM |  |  |  |  |  |  |  |  | 
O=c1cc(-c2ccccc2)oc2c(-c3cc(Cl)cc4c(=O)cc(-c5ccccc5)oc34)cc(Cl)cc12 | > 100 µM | > 100 µM | 48.4 µM |  | 94 µM | > 100 µM | > 100 µM | > 100 µM | > 100 µM | > 100 µM |  |  |  |  |  |  |  |  | 
COc1ccc(CN2C3CC2CN(c2ccc(-c4cc(OCC(C)(C)O)cn5ncc(C#N)c45)cn2)C3)cn1 | 47.6 µM | > 100 µM | > 100 µM | 7.35 µM | 4.81 µM |  | > 100 µM | > 100 µM | 9.45 µM | > 100 µM | 2.18 µM | 4.72 µM | 5.27 µM | > 100 µM | 2.12 µM | 1.32 µM | 15.9 µM | 20.7 µM | 4.45 µM
CC(=O)OC(Cn1cncn1)(Cn1cncn1)c1ccc(Cl)cc1Cl | > 100 µM | > 100 µM |  | > 100 µM | > 100 µM |  | > 100 µM |  | > 100 µM | > 100 µM |  |  |  |  |  |  |  |  | 
C=Cc1ccccc1C1(O)C=CC(OC)(OC)C=C1 | 19.5 µM | 32.5 µM | 17.6 µM |  | 38.7 µM |  | 30.8 µM | 7.02 µM | 14.8 µM | 21.9 µM |  |  |  |  |  |  |  |  | 
CC(=O)OC1CCC2C3CCc4c(C)ccc(OS(=O)(=O)c5ccccc5)c4C3CCC12C (stereo not given) | > 100 µM | > 100 µM | > 100 µM | 37.9 µM |  | > 100 µM | > 100 µM | > 100 µM | 94.4 µM | > 100 µM |  |  |  |  |  |  |  |  | 
CN(C)CCC(=O)/C=C\c1ccccc1 | > 100 µM | 45.5 µM | 31.3 µM | 32.9 µM | > 100 µM |  | > 100 µM | 35.1 µM | 29.2 µM | 37.5 µM |  |  |  |  |  |  |  |  | 
COc1nc(C#CC(C)(C)C)nc(OC)n1 | > 100 µM | > 100 µM | 42 µM |  | > 100 µM | > 100 µM | > 100 µM | 79.3 µM | > 100 µM | > 100 µM |  |  |  |  |  |  |  |  | 
OCc1ccc2c(c1)CC1(Cc3ccc(/C=N/O)cc3C1)C2 (stereo not given) | > 76.7 µM | > 40.8 µM | > 56.1 µM | 59.5 µM | > 25.5 µM |  | > 100 µM | > 100 µM |  | 18.9 µM |  |  |  |  |  |  |  |  | 
N#Cc1nc(NC(=O)c2ccccc2C(=O)O)c(C#N)[nH]1 | > 100 µM | > 100 µM | > 100 µM | > 100 µM | > 100 µM | > 100 µM | > 100 µM |  |  |  |  |  |  |  |  |  |  |  | 
NC(=O)N/N=C1\CC2C3CC4C2C4C13 (stereo not given) | > 100 µM | > 100 µM | > 100 µM | > 100 µM | > 100 µM | > 100 µM | > 100 µM | > 100 µM |  | > 100 µM |  |  |  |  |  |  |  |  | 
COc1ccc(C2c3cc4c(cc3OC(N3CCOCC3)C2C)OCO4)c(OC)c1OC (stereo not given) | > 100 µM | 43 µM | 69.7 µM |  |  | 8.42 µM | 39.1 µM | 35.6 µM |  | 51.3 µM |  |  |  |  |  |  |  |  | 
COc1ccc(N(C(=O)Nc2ccc(Cl)c(Cl)c2)C2c3cccn3C(=O)N2c2ccc(Cl)c(Cl)c2)cc1 (stereo not given) |  | 94.8 µM | > 100 µM | > 100 µM |  | > 100 µM | > 100 µM | > 100 µM | > 100 µM | > 100 µM |  |  |  |  |  |  |  |  | 
O=C(C(Cl)=C(N1CCOCC1)N1CCOCC1)C(Cl)Cl | > 100 µM |  | > 100 µM | > 100 µM |  | > 100 µM | > 100 µM | > 100 µM | > 100 µM | > 100 µM |  |  |  |  |  |  |  |  | 

— PubChem BioAssay (NCI)
